Tested on: perception of the sweet taste of an aqueous solution of sweetener in humans
Test: Two-alternative forced choice "sip and spit" method (2AFC)
Assay type: in vivo
Procedure: The taste test panelists used in the Examples 1-3 were selected using a sensory acuity screening program. Candidate taste panelists were recruited, with prescreening and personal interviews, and were assessed and for their ability to detect, recognize and differentiate basic taste attributes or mixtures thereof as part of a standardized acuity test. This included basic tastes of sweet, sour, salty, bitter and umami, as well as having the capacity to focus on specific aspects of sensory character such as ranking the various tastes perceived and identifying the basic tastes presented at threshold levels.
The effect of the test compounds on the perception of the sweet taste of an aqueous solution of sweetener in humans was evaluated using a two-alternative forced choice “sip and spit” method (2AFC).
The aqueous sweetener solutions were prepared by adding, fructose, sucrose or glucose (by weight), to water to achieve the desired concentration.
Compounds were first prepared as a 500-fold concentrated stock solution in 100% ethanol. These concentrated stocks were then added to the aqueous sweetener solutions to result in a final ethanol concentration of 0.2%. The control (positive and negative) samples were also normalized to 0.2% ethanol. This level of ethanol was not seen to contribute any perceived sweetness.
The 2AFC test used for compound evaluation was a blind and randomized test where taste panelists (n=15) evaluate a pair of sweetener solutions at a time one sample contains aqueous sweetener solution plus compound (i.e. test) while the other contains aqueous sweetener solution at higher concentration without compound (i.e. positive control). Each test sample was compared against a positive control. For example, if the test sample contained 1× sweetener concentration with compound (e.g. 5% sucrose with compound), the positive control sample contained a 1.1× sweetener concentration (e.g. 5.5% sucrose without compound).
Panelists were instructed not to eat or drink (except water) for at least 1 h before the test. During the test, panelists were instructed to sip each sample, swirl it around their mouth and then expectorate. After tasting each sample in the pair, panelists were instructed to record the sample that is “sweeter” in taste. Panelists cleansed their palates by rinsing with water, eating a cracker and waiting for an interval of about 5 minutes. Each pair was tasted twice. All samples were tasted at ambient temperatures. Data were analyzed using binomial probabilities.
Approximate levels of sweetness enhancement in column 5 of Table 2 were calculated as follows:
Approximate levels of sweetness enhancement=Sweetener concentration of positive control surpassed by the test sample, divided by sweetener concentration for compound-containing sample (e.g. 1.15×=5.75% sucrose/5% sucrose).

COc1ccc(C2CC(=O)c3c(O)cccc3O2)cc1O (racemic) [Compound 1, 5-hydroxy-2-(3-hydroxy-4-methoxyphenyl)chroman-4-one]
Fold increase in perceived sweetness (test sample 4% fructose, compound 25 ppm, positive control conc. / test sample conc.): >1.20X | Sweetener Concentration of positive control surpassed by test sample (test sample 4% fructose, positive control fructose, compound 25 ppm): > 4.8% | Sweetener Concentration of positive control surpassed by test sample (test sample 5% sucrose, positive control sucrose, compound 15 ppm): > 5.75% | Sweetener Concentration of positive control surpassed by test sample (test sample 6.5% glucose, positive control glucose, compound 10, 25 ppm): > 7.48%
